Measured values from patent US12441777B2 (NXERA PHARMA UK LIMITED, priority 2018, dated 2025).

Key:
[1] = target: T1, Human GLP-1R (Homo sapiens, UniProt P43220); experiment: Functional antagonism of human GLP1 receptors, cAMP accumulation assay (HiRange cAMP kit, HEK cells infected with GLP-1R Bacmam, GLP-1(7-36) amide at EC80); format: cell-based; conditions: functional pKb from IC50 corrected by Cheng-Prusoff adaptation, GLP-1(7-36) at EC80
T1 construct: expressed in transfected cells; host or cells: HEK cells infected with GLP-1R BacMam
T1 sequence (P43220 24-463): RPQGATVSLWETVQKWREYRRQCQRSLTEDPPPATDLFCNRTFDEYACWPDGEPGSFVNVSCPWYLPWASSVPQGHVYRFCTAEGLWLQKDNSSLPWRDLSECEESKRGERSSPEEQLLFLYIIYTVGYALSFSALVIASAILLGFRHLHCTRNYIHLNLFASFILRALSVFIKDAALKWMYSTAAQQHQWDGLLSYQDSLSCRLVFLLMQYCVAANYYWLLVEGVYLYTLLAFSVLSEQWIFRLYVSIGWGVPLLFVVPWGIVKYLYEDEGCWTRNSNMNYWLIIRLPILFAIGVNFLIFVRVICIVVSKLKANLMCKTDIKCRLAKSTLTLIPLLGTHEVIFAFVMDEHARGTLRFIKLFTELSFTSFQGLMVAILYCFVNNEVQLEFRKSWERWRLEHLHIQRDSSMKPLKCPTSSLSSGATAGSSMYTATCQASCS
Procedure: The method followed a two-step protocol provided in the kit. In brief, HEK cells infected with 1% v/v GLP-1R Bacmam for 24 h were harvested using cell dissociation solution (Gibco), centrifuged and resuspended in the assay buffer (HBSS (Lonza) supplemented with 0.5 mM IBMX (Tocris)). DMSO stock of test compounds were serially diluted in the assay buffer and added to 96-well half area white plates (Costar). Final DMSO concentration in the assay was 0.3%. 20K cells per well were added to plates followed by 30 min incubation (humidified air (5% CO2), 37° C.). […] Intracellular accumulation of cAMP was stopped by addition of the HTRF detection reagents in lysis buffer, provided in the kit. Following 1-hour incubation at RT, plates were read on Pherastar FS (BMG Labtech, Inc.) Dotmatics Studies software was used for fitting data to a four-parameter concentration response curve. Calculated IC50 values were corrected for the agonist concentration using an adaptation of the Cheng-Prusoff equation to generate functional pKb values: […]

[2] = target: T2, Mouse GLP-1R (Mus musculus, UniProt O35659); experiment: Functional antagonism of mouse GLP1 receptors, cAMP accumulation assay (HitHunter, CHO-K1 cells stably expressing mouse GLP-1R, Exendin-4 at EC80); format: cell-based; conditions: functional pKb from IC50 corrected by Cheng-Prusoff adaptation
T2 construct: expressed in transfected cells
T2 sequence (O35659 22-463): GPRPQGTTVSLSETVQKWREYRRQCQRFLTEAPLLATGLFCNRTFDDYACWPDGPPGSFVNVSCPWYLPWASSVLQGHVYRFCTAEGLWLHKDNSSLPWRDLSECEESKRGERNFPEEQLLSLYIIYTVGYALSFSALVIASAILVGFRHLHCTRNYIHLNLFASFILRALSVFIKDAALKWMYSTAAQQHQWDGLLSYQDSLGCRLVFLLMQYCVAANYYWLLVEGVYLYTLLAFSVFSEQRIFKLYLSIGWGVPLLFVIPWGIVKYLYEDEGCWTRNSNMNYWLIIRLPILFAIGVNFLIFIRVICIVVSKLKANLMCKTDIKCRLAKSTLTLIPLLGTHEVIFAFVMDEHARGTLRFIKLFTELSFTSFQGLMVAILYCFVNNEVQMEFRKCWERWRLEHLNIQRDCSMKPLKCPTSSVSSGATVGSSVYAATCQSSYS
Source text: Final DMSO concentration in the assay was 1%. […] Calculated IC50 values were corrected for the agonist concentration using an adaptation of the Cheng-Prusoff equation to generate functional pKb values: […]

exendin(9-39)amide [Ex 9-39]
Human GLP-1R antagonist cAMP fpKb [1]: 7.8
Mouse GLP-1R antagonist cAMP fpKb [2]: 7.2
